The results in this text go back to publication PMC6643834 (ACS Omega, 2018).

Some results are limits rather than exact numbers.

Assay [1] relates to P. aeruginosa purine deoxyribonucleotide levels (bacterial RNR). The assay is described as follows: DPA assay for dNTP quantification. The conditions noted are these: 5 mM for 3 h, exponential phase, compared to negative control. The class given is cell-based, P. aeruginosa PAO1.
Assay [2] concerns B. anthracis Sterne 7700 pXO1–/pXO2–. Description: microbe, parasite or virus in culture. The class given is cell-based. The conditions noted are these: Bacillus anthracis, 8 h, read-out: MIC50 Gram-positive Bant.
Assay [3] deals with P. aeruginosa continuous-flow biofilms. Description: Flow cell biofilm assay. It counts as cell-based, Pseudomonas aeruginosa. The conditions noted are these: COMSTAT analysis.
For a further assay, the system named is class Ia RNR (NrdA). Description: NrdA expression by Western immunoblot. The conditions noted are these: 5 mM for 3 h, compared to the negative control. It counts as cell-based, P. aeruginosa PAO1.
The test system of assay [4] is P. aeruginosa PAO1 static biofilms. The assay is described as follows: Static biofilm assay, P. aeruginosa. It counts as cell-based, Pseudomonas aeruginosa.
The next assay concerns Staph. aureus biofilm. The assay is described as follows: Static biofilm assay, Staph. aureus. It counts as cell-based, Staphylococcus aureus. The conditions noted are these: treating with CIP.

Regarding `NC(=O)NO` [HU, hydroxyurea, reference compound], the “reduction of dNTP levels” value in assay [1] turned out to be 65.45%.

Regarding `COc1ccc(CNO)c(C)c1` [Compound 17, N-(4-Methoxy-2-methylbenzyl)hydroxylamine], the MIC50 in assay [2] was under 15 µg/mL.

With `Cc1cc(F)ccc1CNO` [Compound 12, N-(4-Fluoro-2-methylbenzyl)hydroxylamine], in assay [1], the “reduction of dNTP levels” value was found to be 67.50%. In assay [3], the “decrease of biomass and average thickness” value was “more than 30%”. Moreover, the “induction of NrdA expression (fold)” value in the assay with class Ia RNR (NrdA) is given as 3. For the same compound, the “reduction of established biofilm” value in assay [4] (after 72 h of treatment, highest concentrations) is “above 55%”.

For `O=C(O)c1cn(C2CC2)c2cc(N3CCNCC3)c(F)cc2c1=O` [CIP, ciprofloxacin, reference compound], the “reduction of Staph. aureus biofilm” value with Staph. aureus biofilm is recorded as “around 60%”. Besides, the “reduction of preestablished biofilm” value in assay [4] (CIP 0.5 μg/mL, positive control) is “more than 85%”.
